Results as given in ChEMBL document CHEMBL1221220, “Transport and signaling via the amino acid binding site of the yeast Gap1 amino acid transceptor” (Nat Chem Biol, 2009).
Changes are numbered by the printed parent chain. Calls of active or inactive are those of the source.

Tests used:
[1] = tested on: T1, General amino-acid permease GAP1 (Saccharomyces cerevisiae), P19145 [V381C]; test: Induction of yeast Gap1 V381C mutant-mediated trehalose activation at 2 mM in presence of 10 mM MTSEA treated before compound addition
T1 sequence (whole entry): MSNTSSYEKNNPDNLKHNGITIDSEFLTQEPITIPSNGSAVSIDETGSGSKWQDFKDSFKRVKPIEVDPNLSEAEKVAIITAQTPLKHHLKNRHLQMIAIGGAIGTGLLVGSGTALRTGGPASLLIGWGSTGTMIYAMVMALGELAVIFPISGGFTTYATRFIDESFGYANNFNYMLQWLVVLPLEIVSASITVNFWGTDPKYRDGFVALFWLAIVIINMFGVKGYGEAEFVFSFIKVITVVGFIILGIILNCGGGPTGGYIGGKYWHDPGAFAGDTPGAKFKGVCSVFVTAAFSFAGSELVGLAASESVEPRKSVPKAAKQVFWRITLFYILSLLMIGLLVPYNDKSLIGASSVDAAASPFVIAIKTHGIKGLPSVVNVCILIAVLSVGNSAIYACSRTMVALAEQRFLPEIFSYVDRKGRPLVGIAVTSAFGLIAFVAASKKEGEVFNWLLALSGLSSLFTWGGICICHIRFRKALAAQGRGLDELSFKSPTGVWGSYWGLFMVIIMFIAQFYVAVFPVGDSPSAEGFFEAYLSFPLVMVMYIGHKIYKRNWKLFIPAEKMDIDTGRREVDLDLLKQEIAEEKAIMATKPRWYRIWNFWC

[2] = tested on: T2, General amino-acid permease GAP1 (Saccharomyces cerevisiae), P19145 [L383C]; test: Induction of yeast Gap1 L383C mutant-mediated trehalose activation at 2 mM in presence of 10 mM MTSEA treated before compound addition
T2 sequence (whole entry): T1 sequence (whole entry) with C381V, L383C

[3] = tested on: T3, General amino-acid permease GAP1 (Saccharomyces cerevisiae), P19145 [G390C]; test: Induction of yeast Gap1 G390C mutant-mediated trehalose activation at 2 mM in presence of 10 mM MTSEA treated before compound addition
T3 sequence (whole entry): T1 sequence (whole entry) with C381V, G390C

[4] = tested on: Saccharomyces cerevisiae; test: Induction of yeast Gap1 L404 mutant-mediated trehalose activation at 2 mM in presence of 10 mM MTSEA treated before compound addition
[5] = tested on: T4, General amino-acid permease GAP1 (Saccharomyces cerevisiae), P19145 [I382C]; test: Induction of yeast Gap1 I382C mutant-mediated amino acid uptake at 2 mM in presence of 10 mM MTSEA treated before compound addition
T4 sequence (whole entry): T1 sequence (whole entry) with C381V, I382C

NC(=O)NCCC[C@H](N)C(=O)O
active: inhibition [1] | inhibition [2] | inhibition [3] | inhibition [4] | Activity [5]
